From ChEMBL document CHEMBL3351288, “Flavonoids and arylbenzofurans from the rhizomes and roots of Sophora tonkinensis with IL-6 production inhibitory activity” (Bioorg Med Chem Lett, 2014) come the findings set out here.

Assay [1] relates to HMC1. In words: Inhibition of A23187-induced IL-6 production in human HMC1 cells incubated for 30 mins prior to A23187 challenge measured after 24 hrs by ELISA. The assay is classed as functional, cell-based. (ELISA stands for enzyme-linked immunosorbent assay.)
Assay [2] in a line: Cytotoxicity against human HMC1 cells assessed as cell viability. The assay is classed as cell-based.

The structures appear in SMILES notation.

As usually defined, the IC50 is the concentration at which inhibition is half-maximal. `CC(C)=CCc1cc(C2CC(=O)c3ccc(O)c(CC=C(C)C)c3O2)c(O)cc1O` (stereo not drawn): the results for the IC50 in assay [1] and in assay [2] were 1.62 µM and > 20 µM, respectively.
On to `CC(C)=CCc1cc([C@@H]2CC(=O)c3ccc(O)c(CC=C(C)C)c3O2)ccc1O` [GLABROL], for which the IC50 in assay [1] was 0.73 µM; in assay [2], > 20 µM.
Take `Oc1ccc2c(c1)OC[C@H]1c3cc4c(cc3O[C@@H]21)OCO4` [MAACKIAIN]: the IC50 in assay [1] is 3.01 µM; in assay [2] it was > 20 µM.
Turning to `COc1ccc(-c2cc3ccc(O)cc3o2)c(O)c1`, the IC50 was 4.02 µM in assay [1] and > 20 µM in assay [2].
